# From BindingDB's records for doi:10.3109/14756366.2010.521745 (Sun Yat-Sen University, 2011)
# Target: T1, Polyphenol oxidase 1 (White button mushroom, UniProt Q00024)
# T1 sequence (Q00024 whole entry): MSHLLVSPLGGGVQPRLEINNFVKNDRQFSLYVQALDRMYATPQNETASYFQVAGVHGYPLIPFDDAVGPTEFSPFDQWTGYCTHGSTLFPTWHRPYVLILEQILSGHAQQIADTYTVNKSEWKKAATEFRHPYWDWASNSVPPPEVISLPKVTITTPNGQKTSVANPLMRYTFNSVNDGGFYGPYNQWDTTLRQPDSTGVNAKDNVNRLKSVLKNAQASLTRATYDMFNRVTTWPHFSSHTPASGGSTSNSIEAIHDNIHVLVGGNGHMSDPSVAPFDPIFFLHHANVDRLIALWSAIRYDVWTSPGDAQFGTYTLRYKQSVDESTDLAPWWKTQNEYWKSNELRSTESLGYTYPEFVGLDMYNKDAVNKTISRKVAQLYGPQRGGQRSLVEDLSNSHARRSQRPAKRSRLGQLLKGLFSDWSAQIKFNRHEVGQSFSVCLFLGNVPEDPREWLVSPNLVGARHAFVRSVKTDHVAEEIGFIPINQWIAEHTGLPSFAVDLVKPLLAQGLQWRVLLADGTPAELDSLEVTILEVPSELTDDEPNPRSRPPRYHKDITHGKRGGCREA
# Experiment: Tyrosinase Inhibition Assay
# Conditions: pH 6.8; 25 °C
# Experimental: In brief, a 10 μL sample was added to an assay mixture containing with 10 μL tyrosinase solution (0.5 mg/mL) and 900 μL phosphate buffer (pH 6.8) to a total volume assay mixture of 920 μL, for 20 min at 25°C. Then 80 μL of L-dopa (1.50 mg/mL) was added to the reaction mixture and the enzyme reaction was monitoredby measuring the change in absorbance at 475 nm of the L-dopa for 1 min.
row,SMILES,IC50
1,"COc1cc(C(=O)c2ccc(O)cc2O)ccc1O [Polyhydroxy benzophenone, 5]",> 200 µM
2,"O=C(c1cc(O)c(O)c(O)c1)c1ccc(O)c(O)c1O [Polyhydroxy benzophenone, 10]",1.4 µM
3,"O=C(c1ccc(O)cc1O)c1ccc(O)c(O)c1O [Polyhydroxy benzophenone, 8]",10.1 µM
4,"O=C(c1ccc(O)cc1O)c1c(O)cc(O)cc1O [Polyhydroxy benzophenone, 11]",> 200 µM
5,"COc1cc(C(=O)c2ccc(O)c(O)c2O)ccc1O [Polyhydroxy benzophenone, 9]",6.4 µM
6,"O=C(c1cc(O)c(O)c(O)c1)c1ccc(O)cc1O [Polyhydroxy benzophenone, 6]",17.4 µM
7,"O=C(c1cccc(O)c1)c1ccc(O)cc1O [Polyhydroxy benzophenone, 12]",> 200 µM
8,O=C(c1ccc(O)cc1)c1ccc(O)c(O)c1O [hsp90_136],> 100 µM
9,"O=C(c1ccc(O)cc1O)c1ccc(O)cc1O [Polyhydroxy benzophenone, 4]",> 200 µM
10,"O=C(c1ccccc1)c1c(O)cc(O)cc1O [Polyhydroxy benzophenone, 16]",> 200 µM
11,"O=C(c1ccccc1)c1ccc(O)c(O)c1O [phenyl(2,3,4-trihydroxyphenyl)methanone]",10.5 µM
12,"O=C(c1ccc(O)cc1)c1cc(O)c(O)c(O)c1 [Polyhydroxy benzophenone, 14]",98.3 µM
13,"O=C(c1ccccc1)c1cccc(O)c1O [Polyhydroxy benzophenone, 18]",> 200 µM
14,"O=C(c1ccccc1O)c1ccc(O)c(O)c1O [Polyhydroxy benzophenone, 15]",8.8 µM
